Measurements from US11618746B2, “Inhibitors of APOL1 and methods of using same” (Vertex Pharmaceuticals Incorporated, priority 2018, dated 2023).
pIC50: −log10 of the molar value.

target: T1, APOL1 G1 Protein (Homo sapiens, UniProt O14791, I384M/S342G); assay: Trypanosoma brucei brucei lysis assay using APOL1 recombinant protein (AlamarBlue viability readout); format: cell-based; conditions: Trypanosoma brucei brucei (Lister 427 VSG 221 bloodstream form) lysis by 0.05 μg/mL recombinant APOL1 G1, 16 hrs
T1 sequence (O14791 28-398 S342G/I384M): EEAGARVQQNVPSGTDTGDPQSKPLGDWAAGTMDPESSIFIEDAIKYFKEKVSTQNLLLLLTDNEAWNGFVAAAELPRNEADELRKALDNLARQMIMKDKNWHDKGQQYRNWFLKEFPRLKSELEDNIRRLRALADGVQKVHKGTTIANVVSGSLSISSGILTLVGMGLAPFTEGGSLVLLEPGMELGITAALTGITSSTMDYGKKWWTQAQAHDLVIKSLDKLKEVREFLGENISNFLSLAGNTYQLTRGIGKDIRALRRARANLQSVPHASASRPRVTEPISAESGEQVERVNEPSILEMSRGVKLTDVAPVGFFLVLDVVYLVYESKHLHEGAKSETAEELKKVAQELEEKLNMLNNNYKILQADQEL
Description: Trypanosoma brucei brucei is a blood stream parasite to which human, gorillas and baboon are immune due to the presence of the APOL1 protein in their HDL particles. The protein is uptaken by the parasite via the TbHpHb receptor located in its flagellar pocket and is bonded by the Hpr protein contained in the HDL particles which triggers the receptor endocytosis by the parasite.
Following endocytosis, the formed vesicle containing the HDL particle matures from early to late endosome, and subsequently to lysosome. The concomitant pH change in the lumen of the vesicle triggers the insertion of the APOL1 protein into the membrane of the late endosome/lysosome and hereby triggers lysosomal membrane premeabilisation and as a further downstream event, trypanosome lysis. Trypanosoma brucei brucei is sensitive to lysis by all three APOL1 variants (G0, G1, and G2).
The Trypanosoma brucei brucei lysis assay is a lysis assay of the parasite using recombinant APOL1 protein variant followed by a fluorescent detection method of viability by the addition of AlamarBlue reagent to the assay well, a general metabolic redox indicator (AlamarBlue assay).
Briefly, the AlamarBlue active compound, the resazurin, a blue, water soluble, non-toxic and cell permeable molecule, which can be followed by absorbance, is reduced by various metabolic pathways into resorufin, a red compound which can be followed by either absorbance or fluorescence. The assay allows the calculation of the percent viability (percent of living Trypanosomes remaining in each well) at the end of a lysis relative to the untreated condition by interpolation of fluorescent values (FLU) on a standard curve with a known amount of seeded trypanosome/well.
Trypanosoma brucei brucei (ATCC, Cat. No. PRA-382) • Lister 427 VSG 221 bloodstream form.
Thaw/Expansion Media (ATCC Medium 2834 Modified HMI-9 Medium)
Equipment • E1-Clip Tip pipette 12 channel adjustable 2-125 μL, Cat. No. 4672070BT • ThermoFisher MultiDrop 384, Cat. No. 5840300 • Multidrop • Agilent Bravo, Cat. No. G5409A • Bravo • SpectraMax M5
Trypanosoma brucei brucei Culture
Step 2, Day 4 • Centrifuge at 800×g for 5 minutes at room temperature. • Resuspend in 1 mL media. • Make a 1:25 fold dilution (10 μL/240 μL media). • Count on a hemocytometer (after adding parasites). • Let sit for 1-2 minutes for the parasites to settle. • Count should be approximately 100 viable motile parasites/16 grid or approximately 25×10^6 parasites/flask. • Passage the parasites by adding 1×10^6 parasites/T75 flask in 20 mL media. • Passage the parasites by adding 2.33×10^6 parasites/T175 flask in 46.6 mL media. • For every T75 flask should make enough for approximately 1.5×384 well assay plates. • For every T175 flask should make enough for approximately 3.8×384 well assay plates.
Step 3. Day 6 • Centrifuge at 800×g for 5 minutes. • Resuspend in 3 mL assay media (No phenol red, no FBS) per 75 starting flask. • Resuspend in 7 mL assay media (No phenol red, no FBS) per 175 flask • Make a 1:25 fold dilution. • Count by hemocytometer. • Every T75 flask set up should have approximately 75×10^6 parasites/flask (verify doubling time=8.7 hrs 1 hr). • Every T175 flask set up should have approximately 175×10^6 parasites/flask (verify doubling time=8.7 hrs±1 hr). • Require 46×10^6 parasites per 384 well plate (at 120,000 parasites per well).
Step 2, Day 2 • Centrifuge at 800×g for 5 minutes at room temperature. • Resuspend in 1 mL media. • Make a 1:25 fold dilution (10 L/240 μL media). • Let sit for 1-2 minutes for the parasites to settle. • Count should be approximately 100 viable motile parasites/16 grid or approximately 8×10^6 parasites per flask. • Passage the parasites by adding 1.25×10^6 parasites per T75 flask in 20 mL media. • For every T75 flask set up should have approximately 1.5×384 well assay plates. • For every T175 flask setup should have approximately 3.8×384 well assay plates. […]

`COc1ccc(-c2[nH]c3ccccc3c2CCC(=O)N[C@@H]2C(=O)NC[C@H]2O)cc1` [Compound 121] and `Cc1ccc(-c2[nH]c3ccccc3c2CCC(=O)N[C@@H]2C(=O)NC[C@H]2O)cc1` [Compound 124] cannot be ordered by pIC50: greater than 6.60 for the first, greater than 6.60 for the second.

First: O=C(CCc1c(-c2ccc(F)cc2)[nH]c2c(F)cc(F)cc12)N[C@H]1C[C@H](CO)NC1=O [Compound 8]
Second: O=C(CCc1c(-c2ccc(F)cc2)[nH]c2c(F)cc(F)cc12)N[C@@H]1CCNC1=O [Compound 13]
The pIC50 of the first is lower: less than 6.00 for the first, greater than 6.60 for the second. The second is the more potent here.

`O=C(CCc1c(-c2ccc(Cl)c(F)c2)[nH]c2ccccc12)N[C@@H]1C(=O)NC[C@H]1O` [Compound 120] and `Cc1ccc(-c2[nH]c3ccccc3c2CCC(=O)N[C@@H]2C(=O)NC[C@H]2O)cc1F` [Compound 126] cannot be ordered by pIC50: greater than 6.60 for the first, greater than 6.60 for the second.

`O=C(CCc1c(-c2ccc(F)cc2)[nH]c2ccc(C(F)(F)F)cc12)N[C@@H]1C(=O)NC[C@H]1O` [Compound 108, 3-[2-(4-fluorophenyl)-5-(trifluoromethyl)-1H-indol-3-yl]-N-[(3S,4R)-4-hydroxy-2-oxo-pyrrolidin-3-yl]propanamide] and `O=C(CCc1c(-c2ccc(F)cc2)[nH]c2ccc(F)cc12)N[C@@H]1C(=O)NC[C@H]1O` [Compound 46] cannot be ordered by pIC50: greater than 6.60 for the first, greater than 6.60 for the second.

Compared with `O=C(CCc1c(-c2ccccc2)[nH]c2c(Br)cccc12)N[C@@H]1C(=O)NC[C@H]1O` [Compound 70], `O=C(CCc1c(-c2ccccc2)[nH]c2c(C(F)(F)F)cccc12)N[C@@H]1C(=O)NC[C@H]1O` [Compound 112, N-[(3S,4R)-4-hydroxy-2-oxo-pyrrolidin-3-yl]-3-[2-phenyl-7-(trifluoromethyl)-1H-indol-3-yl]propanamide] is lower in pIC50: greater than 6.60 for the first, less than 6.00 for the second.

`O=C(CCc1c(-c2ccc(OC(F)F)cc2)[nH]c2c(F)cc(F)cc12)N[C@H]1CCNC1=O` [Compound 21] and `O=C(CCc1c(-c2ccc(F)cc2)[nH]c2c(F)cc(F)cc12)N[C@H]1CCNC1=O` [Compound 3, 3-[5,7-difluoro-2-(4-fluorophenyl)-1H-indol-3-yl]-N-[(3S)-2-oxopyrrolidin-3-yl]propanamide] cannot be ordered by pIC50: greater than 6.60 for the first, greater than 6.60 for the second.

`O=C(CCc1c(-c2ccc(F)cc2)[nH]c2ccccc12)N[C@@H]1C(=O)NC[C@H]1O` [Compound 87, 3-[2-(4-fluorophenyl)-1H-indol-3-yl]-N-[(3S,4R)-4-hydroxy-2-oxo-pyrrolidin-3-yl]propanamide] and `O=C(CCc1c(-c2ccc(C(F)(F)F)cc2)[nH]c2ccccc12)N[C@@H]1C(=O)NC[C@H]1O` [Compound 123] cannot be ordered by pIC50: greater than 6.60 for the first, greater than 6.60 for the second.

`O=C(CCc1c(-c2ccc(F)c(F)c2)[nH]c2ccccc12)N[C@@H]1C(=O)NC[C@H]1O` [Compound 129, 3-[2-(3,4-difluorophenyl)-1H-indol-3-yl]-N-[(3S,4R)-4-hydroxy-2-oxo-pyrrolidin-3-yl]propanamide] and `Cc1cc(-c2[nH]c3ccccc3c2CCC(=O)N[C@@H]2C(=O)NC[C@H]2O)ccc1F` [Compound 125] cannot be ordered by pIC50: greater than 6.60 for the first, greater than 6.60 for the second.

`N#Cc1cc(F)cc2c(CCC(=O)N[C@@H]3C(=O)NC[C@H]3O)c(-c3ccc(F)cc3)[nH]c12` [Compound 42] and `Cc1cc(F)cc2c(CCC(=O)N[C@@H]3C(=O)NC[C@H]3O)c(-c3ccc(F)cc3)[nH]c12` [Compound 37] cannot be ordered by pIC50: greater than 6.60 for the first, greater than 6.60 for the second.

`O=C(CCc1c(-c2ccc(F)c(F)c2)[nH]c2c(F)cc(F)cc12)N[C@@H]1C(=O)NC[C@H]1O` [Compound 105] and `O=C(CCc1c(-c2cccc(F)c2)[nH]c2c(F)cc(F)cc12)N[C@@H]1C(=O)NC[C@H]1O` [Compound 103] cannot be ordered by pIC50: greater than 6.60 for the first, greater than 6.60 for the second.

First: Cc1ccc(-c2[nH]c3ccccc3c2CCC(=O)N[C@@H]2C(=O)NC[C@H]2O)c(F)c1 [Compound 122]
Second: O=C(CCc1c(-c2cc(F)cc(F)c2)[nH]c2ccccc12)N[C@@H]1C(=O)NC[C@H]1O [Compound 127, 3-[2-(3,5-difluorophenyl)-1H-indol-3-yl]-N-[(3S,4R)-4-hydroxy-2-oxo-pyrrolidin-3-yl]propanamide]
The pIC50 of the first is higher: greater than 6.60 for the first, 6.00 to 6.60 for the second.

`O=C(CCc1c(-c2ccccc2)[nH]c2c(F)c(F)c(F)cc12)N[C@@H]1C(=O)NC[C@H]1O` [Compound 80] and `O=C(CCc1c(-c2ccccc2)[nH]c2cc(F)c(F)cc12)N[C@@H]1C(=O)NC[C@H]1O` [Compound 82] cannot be ordered by pIC50: greater than 6.60 for the first, greater than 6.60 for the second.

Compared with `O=C(CCc1c(-c2ccccc2)[nH]c2cccc(F)c12)N[C@@H]1C(=O)NC[C@H]1O` [Compound 114, 3-(4-fluoro-2-phenyl-1H-indol-3-yl)-N-[(3S,4R)-4-hydroxy-2-oxo-pyrrolidin-3-yl]propanamide], `O=C(CCc1c(-c2ccccc2)[nH]c2ccc(Cl)cc12)N[C@@H]1C(=O)NC[C@H]1O` [Compound 44, 3-(5-chloro-2-phenyl-1H-indol-3-yl)-N-[(3S,4R)-4-hydroxy-2-oxo-pyrrolidin-3-yl]propanamide] is higher in pIC50: 6.00 to 6.60 for the first, greater than 6.60 for the second. The second is the more potent here.

`O=C(CCc1c(-c2ccc(OC(F)(F)F)cc2)[nH]c2ccccc12)N[C@@H]1C(=O)NC[C@H]1O` [Compound 118] and `O=C(CCc1c(-c2ccc(F)cc2)[nH]c2c(F)cccc12)N[C@@H]1C(=O)NC[C@H]1O` [Compound 76] cannot be ordered by pIC50: greater than 6.60 for the first, greater than 6.60 for the second.

`O=C(CCc1c(-c2cc(F)cc(F)c2)[nH]c2c(F)cc(F)cc12)N[C@@H]1C(=O)NC[C@H]1O` [Compound 104] and `COc1cc(F)cc2c(CCC(=O)N[C@@H]3C(=O)NC[C@H]3O)c(-c3ccc(F)cc3)[nH]c12` [Compound 40] cannot be ordered by pIC50: greater than 6.60 for the first, greater than 6.60 for the second.

First: O=C(CCc1c(-c2ccc(F)cc2)[nH]c2ccc(F)cc12)N[C@@H]1CCNC1=O [Compound 49]
Second: O=C(CCc1c(-c2ccc(F)cc2)[nH]c2ccc(F)cc12)N[C@H]1CCNC1=O [Compound 47]
The pIC50 of the first is lower: 6.00 to 6.60 for the first, greater than 6.60 for the second. The second is the more potent here.

First: N#Cc1ccc(-c2[nH]c3c(F)cc(F)cc3c2CCC(=O)N[C@H]2CCNC2=O)cc1 [Compound 20, 3-[2-(4-cyanophenyl)-5,7-difluoro-1H-indol-3-yl]-N-[(3S)-2-oxopyrrolidin-3-yl]propanamide]
Second: N#Cc1cc(F)c2[nH]c(-c3ccc(F)cc3)c(CCC(=O)N[C@H]3CCNC3=O)c2c1 [Compound 28]
The pIC50 of the first is higher: greater than 6.60 for the first, less than 6.00 for the second. The first is the more potent here.

Compared with `CN(C(=O)CCc1c(-c2ccc(F)cc2)[nH]c2ccc(F)cc12)C1CCNC1=O` (stereo not shown) [Compound 50], `O=C(CCc1c(-c2ccc(F)cc2)[nH]c2c(F)cccc12)N[C@H]1CCNC1=O` [Compound 75] is higher in pIC50: 6.00 to 6.60 for the first, greater than 6.60 for the second. The second is the more potent here.

`O=C(CCc1c(-c2ccc(F)cc2)[nH]c2c(Cl)cccc12)N[C@@H]1C(=O)NC[C@H]1O` [Compound 73] and `O=C(CCc1c(-c2ccc(F)cc2)[nH]c2c(Cl)cccc12)N[C@H]1CCNC1=O` [Compound 72] cannot be ordered by pIC50: greater than 6.60 for the first, greater than 6.60 for the second.

`O=C(CCc1c(-c2ccc(F)cc2)[nH]c2c(F)cc(Br)cc12)N[C@H]1CCNC1=O` [Compound 27] and `CC1(NC(=O)CCc2c(-c3ccc(F)cc3)[nH]c3c(F)cc(F)cc23)CCNC1=O` (racemic) [Compound 14] cannot be ordered by pIC50: greater than 6.60 for the first, greater than 6.60 for the second.
